According to article PMC6092832, “Anti-inflammatory activities of Aedes aegypti cecropins and their protection against murine endotoxin shock” (Parasites & Vectors, 2018):
Read-outs that look alike come from different tables or passages of the source. Where no end group is shown, it is not given here.

Assays:
Assay type in all cases: cell-based
[1] = tested on: LPS-stimulated mouse peritoneal macrophages
Procedure: (§1) ^aAnti-inflammatory interactions between peptide 1 and peptide 2 of AeaeCec peptides were determined by the chequerboard assay as described previously. First, 2-fold serial dilutions of peptides were prepared. Next, peptides were dissolved in PBS and added to mouse macrophages to final concentrations of 5, 2.5, 1.25, 0.625, 0.3125 µMin each well of a 96-well plate in the presence of E. coli LPS (100 ng/ml). The same volume of PBS served as a control. After incubation at 37˚Cfor 24 h, the culture supernatants of mouse macrophages were detected for the NO production (nitrite accumulation) using Griess reagent. Half maximal inhibitory concentrations (IC50) were calculated. The fractional inhibitory concentration index (FICI) was calculated for each combination using this equation: FICI = FICA+ FICB, where FICA= IC50 of peptide A in combination/IC50 of peptide A alone, and FICB= IC50 of peptide B in combination/IC50 of peptide B alone. FICI of ≤ 0.5 was interpreted as synergy, 0.5 < FICI ≤ 1.0 as additive, 1.0 < FICI ≤ 4.0 as indifferent, and FICI > 4.0 as antagonism. Data were calculated from three independent experiments and presented as mean ± SEM.
as §1, with “2” for “2 of AeaeCec peptides”, “µM in” for “µMin”, “supernatant” for “supernatants”, “assayed” for “detected”, “for” for “for the”, “≤1.0” for “≤ 1.0”

E. coli = tested on: E. coli
From the text: MIC: minimal inhibitory concentration. These concentrations represent mean values of three independent experiments performed in duplicates. CI: clinically isolated strain.

[2] = tested on: mouse peritoneal macrophages; experiment: CCK-8 cytotoxic assay; settings: 24 h
Procedure: Cell Counting Kit-8 (CCK-8) was used to detect the cytotoxicity of AeaeCec1-5 against mammalian cells. In brief, mouse peritoneal macrophages, human PBMCs and Vero E6 cells were seeded in 96-well plates (2×10^4 cells/well, 100 μl/well). After cells adhered to culture plate, the culture medium was transferred with a two-fold dilution series of AeaeCec1-5 beginning with 50 μM (100 μl) prepared in serum-free RPMI-1640 for mouse macrophages and human PBMCs, and serum-free DMEM for Vero E6 cells. After incubation at 37 °C for 24 h, CCK-8 solution (10 μl/well) was added for an additional 4 h incubation. The absorbance at 450 nm was recorded on a microplate reader (Epoch Etock, BioTek, Vermont, USA).
Supplementary file 13071_2018_3000_MOESM2_ESM.tif: Additional file 2: Figure S1. Cytotoxicity of Ae. aegypti cecropins against mammalian cells. a Mice peritoneal macrophages, human PBMCs and Vero E6 cells were exposed to 50 μM AeaeCec1-5, respectively. b Mice peritoneal macrophages and human PBMCs were exposed to series of two-fold AeaeCec5 dilutions ranging from 3.125 to 50 μM, respectively. (TIF 161 kb)

[3] = IC50 in combination with AeaeCec1 / IC50 alone
[4] = IC50 in combination with AeaeCec2 / IC50 alone
[5] = IC50 in combination with AeaeCec3 / IC50 alone
[6] = IC50 in combination with AeaeCec5(2W→2A) / IC50 alone
[7] = IC50 in combination with AeaeCec5 / IC50 alone
[8] = IC50 in combination with AeaeCec4 / IC50 alone

Q: Which results are given for “GGLKKLGKKLEGAGKRVFKASEKALPVVVGIKAI-NH2 [AeaeCec4]”?
A: FIC [1, 3]: 0.50; FIC [1, 4]: 0.49; FIC [1, 5]: 0.52; FIC [1, 6]: 0.53; FIC [1, 7]: 0.43

Q: With “GGLKKLGKKLEGAGKRVFNAAEKALPVVAGAKAL-NH2 [AeaeCec2]” as the substance, how does the FIC [1, 3] read?
A: 0.50

Q: And the FIC [1, 5]?
A: 0.49

Q: And the FIC [1, 8]?
A: 0.53

Q: What about the FIC [1, 6] of the same substance?
A: 0.50

Q: What about the FIC [1, 7] of the same substance?
A: 0.47

Q: Which results are given for “GGLKKLGKKLEGAGKRVFNAAEKALPVVAGAKALRK [AeaeCec1]”?
A: FIC [1, 4]: 0.52; FIC [1, 5]: 0.53; FIC [1, 8]: 0.54; FIC [1, 6]: 0.47; FIC [1, 7]: 0.42

Q: How did the FIC [1, 3] turn out when “GGLKKLGKKLEGVGKRVFKASEKALPVVTGYKAI-NH2 [AeaeCec3]” was run?
A: 0.49

Q: And the FIC [1, 4]?
A: 0.52

Q: What about the FIC [1, 8] of the same substance?
A: 0.50

Q: What about the FIC [1, 6] of the same substance?
A: 0.51

Q: And the FIC [1, 7]?
A: 0.47

Q: For “RAKFGKKLEKVGKNVFNAAKKALPVVAGYKAL-NH2 [AeaeCec5(2W→2A)]”, which FIC [1, 3] is on record?
A: 0.61

Q: And the FIC [1, 4]?
A: 0.57

Q: And the FIC [1, 5]?
A: 0.54

Q: And the FIC [1, 8]?
A: 0.56

Q: “RWKFGKKLEKVGKNVFNAAKKALPVVAGYKAL-NH2 [AeaeCec5]” was tested. Which minimal inhibitory concentrations (E. coli) did it give?
A: 1.17 to 2.34 µg/mL

Q: And the cytotoxicity ([2]; 12.5 μM)?
A: 9.5%

Q: And the cell death ([2]; 50 μM)?
A: 28.9%

Q: What about the cytotoxicity ([2]; concentration below 6.25 μM) of the same substance?
A: no cytotoxicity

Q: What about the FIC [1, 3] of the same substance?
A: 0.44

Q: And the FIC [1, 4]?
A: 0.42

Q: What about the FIC [1, 5] of the same substance?
A: 0.47

Q: What about the FIC [1, 8] of the same substance?
A: 0.46
